Here are results for 15 compounds from US20260028354A1, “TETRAHYDRONAPHTHALENE DERIVATIVES AS ESTROGEN RECEPTOR DEGRADERS” (REGENT OF THE UNIVERSITY OF MICHIGAN, priority 2022, published 2026).

Where two headings read alike, the source gives them in different places. Where only a bound is given, the exact number is not on record here.

Assay [1] in a line: Cell growth assay (WST-8) for "B" compounds. It counts as cell-based. The following applies: T47D, read-out: Cell growth Inhibition in T47D cell line IC50. As for the experimental part: Cell Growth Assay. The cells were seeded at 1500/well in 96 well plates overnight. One day after the seeding, they were treated with indicated doses of compounds respectively, 4 days after the compound treatment, 10% WST-8 reagent was added to the culture medium and incubate in a CO2 incubator at 37° C. for 2.5 hours. Before reading, the plate was mixed gently on an orbital shaker for one minute to ensure homogeneous distribution of color. The absorbance was measured of each sample using a microplate reader at a wavelength of 450 nm. The relative absorbance was calculated against the vehicle control from three individually repeats.
A general note: Formazan colour is commonly taken as a measure of viable cells.

The target in assay [2] is ER (Homo sapiens (Human), UniProt P03372). Description: In-cell western blot analysis of ER for "B" compounds. It counts as cell-based. To be noted: 16 hours, read-out: ICW DC50. The protocol:
R^T 2h, gentle shaking. Negative control: cells plus secondary antibodies (no primary antibodies); e, wash x 4 with PBS+0.05-0.1% Tween 20, gentel shaking; f, anti-rabbit-680 and anti-mouse-800 (both 1:1000 in LiCor block+0.05% Tween20, R^T 1h, gentle shaking, no light. LI-COR: 0.2% to reduce background; g, wash×4 with PBS+0.05% Tween 20, gental shaking; h, add 100 μL or 25 μL of PBS to each well and read on CLX plate reader. The relative ER percentage in treated cells were obtained by comparing the values of treated wells to those in untreated and DMSO-treated wells as 100%.

Sequence of ER (P03372 whole entry): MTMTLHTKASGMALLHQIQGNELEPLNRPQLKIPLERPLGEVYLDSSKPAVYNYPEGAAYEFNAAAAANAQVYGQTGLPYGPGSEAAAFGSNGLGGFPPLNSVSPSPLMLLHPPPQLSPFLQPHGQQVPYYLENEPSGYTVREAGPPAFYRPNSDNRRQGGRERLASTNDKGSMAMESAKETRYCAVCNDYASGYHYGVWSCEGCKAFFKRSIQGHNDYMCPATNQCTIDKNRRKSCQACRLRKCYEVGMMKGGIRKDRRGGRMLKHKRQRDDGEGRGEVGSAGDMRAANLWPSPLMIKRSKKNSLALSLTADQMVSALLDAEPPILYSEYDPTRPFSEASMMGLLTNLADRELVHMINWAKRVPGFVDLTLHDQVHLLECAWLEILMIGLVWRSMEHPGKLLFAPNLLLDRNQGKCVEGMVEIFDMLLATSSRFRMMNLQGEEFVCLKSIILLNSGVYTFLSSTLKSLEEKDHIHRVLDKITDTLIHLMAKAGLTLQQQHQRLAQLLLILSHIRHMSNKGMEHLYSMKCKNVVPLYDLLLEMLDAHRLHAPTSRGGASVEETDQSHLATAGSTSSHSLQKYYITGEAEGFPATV

`O=C1CCC(N2Cc3c(ccc4c3OCC43CCN(CC4COC5(CN(c6ccc([C@@H]7c8ccc(O)cc8CC[C@@H]7c7ccccc7)cc6)C5)OC4)CC3)C2=O)C(=O)N1` (stereo partly drawn) [Compound B346, 3-(1′-((2-(4-((1R,2S)-6-hydroxy-2-phenyl-1,2,3,4-tetrahydronaphthalen-1-yl)phenyl)-5,9-dioxa-2-azaspiro[3.5]nonan-7-yl)methyl)-6-oxo-6,8-dihydro-2H,7H-spiro[furo[2,3-e]isoindole-3,4′-piperidin]-7-yl)piperidine-2,6-dione]: in assay [1], the IC50 was 1 to 10 nM. In addition, in assay [2], the DC50 was in the range of 10 to 100 nM.

For the compound `CN(C(=O)c1ccc2c(n1)OC[C@H]1CN(CC3COC4(CCN(c5ccc([C@@H]6c7ccc(O)cc7CC[C@@H]6c6ccccc6)cc5)CC4)C3)CCN21)C1CCC(=O)NC1=O` (stereo partly drawn) [Compound B237, (4aR)-N-(2,6-dioxopiperidin-3-yl)-3-((8-(4-((1R,2S)-6-hydroxy-2-phenyl-1,2,3,4-tetrahydronaphthalen-1-yl)phenyl)-1-oxa-8-azaspiro[4.5]decan-3-yl)methyl)-N-methyl-1,2,3,4,4a,5-hexahydropyrazino[1,2-d]pyrido[2,3-b][1,4]oxazine-8-carboxamide], in assay [1] (T47D cell line), the IC50 was 1 to 10 nM. In assay [2], the DC50 is more than 100 nM.

With `O=C1CCC(N2Cc3cc4c(cc3C2=O)OC[C@@H]2C[C@H](NCC3CCN(c5ccc([C@@H]6c7ccc(O)cc7CC[C@@H]6c6ccccc6)cc5)CC3)CN42)C(=O)N1` (stereo partly drawn) [Compound B307, 3-((2S,3aS)-2-(((1-(4-((1R,2S)-6-hydroxy-2-phenyl-1,2,3,4-tetrahydronaphthalen-1-yl)phenyl)piperidin-4-yl)methyl)amino)-7-oxo-2,3,3a,4,7,9-hexahydro-1H,8H-pyrrolo[1′,2′:4,5][1,4]oxazino[2,3-f]isoindol-8-yl)piperidine-2,6-dione], the 50% inhibitory concentration (IC50) in assay [1] (T47D cell line) was 1 to 10 nM. Also, in assay [2], the DC50 was more than 100 nM.

Turning to `COc1c2c(cc3c1CN(C1CCC(=O)NC1=O)C3=O)CN(CC(=O)N1CCC3(CC1)CCN(c1ccc([C@@H]4c5ccc(O)cc5CC[C@@H]4c4ccccc4)cc1)CC3)C2` (stereo partly drawn) [Compound B203, 3-(6-(2-(9-(4-((1R,2S)-6-hydroxy-2-phenyl-1,2,3,4-tetrahydronaphthalen-1-yl)phenyl)-3,9-diazaspiro[5.5]undecan-3-yl)-2-oxoethyl)-4-methoxy-1-oxo-3,5,6,7-tetrahydropyrrolo[3,4-f]isoindol-2(1H)-yl)piperidine-2,6-dione], in assay [1] (T47D cell line), the half-maximal inhibitory concentration (IC50) is less than 1 nM. Also, the DC50 in assay [2] was less than 10 nM.

As to `O=C1CC[C@H](NC(=O)c2ccc3c(n2)OC[C@H]2CN(CC4CC5(CCN(c6ccc([C@@H]7c8ccc(O)cc8CC[C@@H]7c7ccccc7)cc6)CC5)C4)CCN32)C(=O)N1` [Compound B225, (R)-N-((S)-2,6-dioxopiperidin-3-yl)-3-((7-(4-((1R,2S)-6-hydroxy-2-phenyl-1,2,3,4-tetrahydronaphthalen-1-yl)phenyl)-7-azaspiro[3.5]nonan-2-yl)methyl)-1,2,3,4,4a,5-hexahydropyrazino[1,2-d]pyrido[2,3-b][1,4]oxazine-8-carboxamide], the half-maximal inhibitory concentration (IC50) in assay [1] (T47D cell line) lay in the range of 1 to 10 nM. The DC50 in assay [2] was in the range of 10 to 100 nM.

With `O=C1CC[C@H](NC(=O)c2ccc3c(c2)OC[C@@H]2CN(CC4CCN(c5ccc([C@@H]6c7ccc(O)cc7CC[C@@H]6c6ccccc6)cc5)CC4)CCN32)C(=O)N1` [Compound B257, (S)-N-((S)-2,6-dioxopiperidin-3-yl)-3-((1-(4-((1R,2S)-6-hydroxy-2-phenyl-1,2,3,4-tetrahydronaphthalen-1-yl)phenyl)piperidin-4-yl)methyl)-1,2,3,4,4a,5-hexahydrobenzo[b]pyrazino[1,2-d][1,4]oxazine-8-carboxamide], the IC50 in assay [1] (T47D cell line) lay within 1 to 10 nM. In addition, in assay [2], the DC50 is more than 100 nM.

As to `O=C1CCC(N2Cc3c(ccc4c3OC[C@H]3CN(CC(=O)N5CC(Oc6ccc([C@@H]7c8ccc(O)cc8CC[C@@H]7c7ccccc7)cc6)C5)CCN43)C2=O)C(=O)N1` (stereo partly shown) [Compound B246], the IC50 in assay [1] (T47D cell line) was less than 1 nM. Besides, the DC50 in assay [2] was less than 10 nM.

With `O=C1CCC(N2Cc3c(ccc4c3OCCC43CCN(CC4CCN(c5ccc([C@@H]6c7ccc(O)cc7CC[C@@H]6c6ccccc6)cc5)CC4)CC3)C2=O)C(=O)N1` (stereo partly drawn) [Compound B165, 3-(1-((1-(4-((1R,2S)-6-hydroxy-2-phenyl-1,2,3,4-tetrahydronaphthalen-1-yl)phenyl)piperidin-4-yl)methyl)-7′-oxo-2′,3′,7′,9′-tetrahydro-8′H-spiro[piperidine-4,4′-pyrano[2,3-e]isoindol]-8′-yl)piperidine-2,6-dione], the IC50 in assay [1] is less than 1 nM. Also, the DC50 in assay [2] was more than 100 nM.

As to `O=C1CC[C@H](NC(=O)c2ccc3c(n2)OC[C@H]2CN(CC4COC5(CCN(c6ccc([C@@H]7c8ccc(O)cc8CC[C@@H]7c7ccccc7)cc6)CC5)C4)CCN32)C(=O)N1` (stereo partly drawn) [Compound B236, (4aR)-N-((S)-2,6-dioxopiperidin-3-yl)-3-((8-(4-((1R,2S)-6-hydroxy-2-phenyl-1,2,3,4-tetrahydronaphthalen-1-yl)phenyl)-1-oxa-8-azaspiro[4.5]decan-3-yl)methyl)-1,2,3,4,4a,5-hexahydropyrazino[1,2-d]pyrido[2,3-b][1,4]oxazine-8-carboxamide], the IC50 in assay [1] (T47D cell line) was less than 1 nM. The DC50 in assay [2] lay within 10 to 100 nM.

`CN1C[C@@H]2CN(CC3COC4(CCN(c5ccc([C@@H]6c7ccc(O)cc7CC[C@@H]6c6ccccc6)cc5)CC4)C3)CCN2c2cc3c(cc21)C(=O)N(C1CCC(=O)NC1=O)C3` (stereo partly drawn) [Compound B234, 3-((4aS)-3-((8-(4-((1R,2S)-6-hydroxy-2-phenyl-1,2,3,4-tetrahydronaphthalen-1-yl)phenyl)-1-oxa-8-azaspiro[4.5]decan-3-yl)methyl)-6-methyl-8-oxo-2,3,4,4a,5,6,8,10-octahydropyrazino[1,2-a]pyrrolo[3,4-g]quinoxalin-9(1H)-yl)piperidine-2,6-dione]: in assay [1] (T47D cell line), the IC50 is less than 1 nM. Besides, in assay [2], the DC50 is more than 100 nM.

With `O=C1CC[C@H](NC(=O)c2ccc3c(n2)OC[C@H]2CN(CC4CCC5(CCN(c6ccc([C@@H]7c8ccc(O)cc8CC[C@@H]7c7ccccc7)cc6)CC5)C4)CCN32)C(=O)N1` (stereo partly drawn) [Compound B365, (4aR)-N-((S)-2,6-dioxopiperidin-3-yl)-3-((8-(4-((1R,2S)-6-hydroxy-2-phenyl-1,2,3,4-tetrahydronaphthalen-1-yl)phenyl)-8-azaspiro[4.5]decan-2-yl)methyl)-1,2,3,4,4a,5-hexahydropyrazino[1,2-d]pyrido[2,3-b][1,4]oxazine-8-carboxamide], in assay [1] (T47D cell line), the IC50 was more than 10 nM. The DC50 in assay [2] lay in the range of 10 to 100 nM.

Regarding `O=C1CCC(N2Cc3cc4c(cc3C2=O)OC[C@@H]2CN(CC(=O)N3CC5(CCN(c6ccc([C@@H]7c8ccc(O)cc8CC[C@@H]7c7ccccc7)cc6)C5)C3)CCN42)C(=O)N1` (stereo partly drawn) [Compound B209, 3-((S)-3-(2-(6-(4-((1R,2S)-6-hydroxy-2-phenyl-1,2,3,4-tetrahydronaphthalen-1-yl)phenyl)-2,6-diazaspiro[3.4]octan-2-yl)-2-oxoethyl)-8-oxo-1,2,3,4,4a,5,8,10-octahydro-9H-pyrazino[1′,2′:4,5][1,4]oxazino[2,3-f]isoindol-9-yl)piperidine-2,6-dione], in assay [1] (T47D cell line), the IC50 was less than 1 nM. Further, the DC50 in assay [2] is less than 10 nM.

Turning to `O=C1CCC(N2Cc3c(ccc4c3OCC43CCN(CC4CCC5(CC4)CN(c4ccc([C@@H]6c7ccc(O)cc7CC[C@@H]6c6ccccc6)cc4)C5)CC3)C2=O)C(=O)N1` (stereo partly drawn) [Compound B228, 3-(1′-((2-(4-((1R,2S)-6-hydroxy-2-phenyl-1,2,3,4-tetrahydronaphthalen-1-yl)phenyl)-2-azaspiro[3.5]nonan-7-yl)methyl)-6-oxo-6,8-dihydro-2H,7H-spiro[furo[2,3-e]isoindole-3,4′-piperidin]-7-yl)piperidine-2,6-dione], the concentration for half-maximal inhibition (IC50) in assay [1] was 1 to 10 nM. In addition, in assay [2], the DC50 was less than 10 nM.

For the compound `CN1C[C@@H]2CN(C(=O)CN3CC4(CCN(c5ccc([C@@H]6c7ccc(O)cc7CC[C@@H]6c6ccccc6)cc5)CC4)C3)CCN2c2cc3c(cc21)C(=O)N(C1CCC(=O)NC1=O)C3` (stereo partly drawn) [Compound B162, 3-((R)-3-(2-(7-(4-((1R,2S)-6-hydroxy-2-phenyl-1,2,3,4-tetrahydronaphthalen-1-yl)phenyl)-2,7-diazaspiro[3.5]nonan-2-yl)acetyl)-6-methyl-8-oxo-2,3,4,4a,5,6,8,10-octahydropyrazino[1,2-a]pyrrolo[3,4-g]quinoxalin-9(1H)-yl)piperidine-2,6-dione], in assay [2], the DC50 lay within 10 to 100 nM.

Consider `O=C1CC[C@H](N2Cc3c(ccc4c3OC[C@H]3CN(C[C@H]5CC[C@H](Nc6ccc([C@@H]7c8ccc(O)cc8CC[C@@H]7c7ccccc7)cc6)CC5)CCN43)C2=O)C(=O)N1` [Compound B353, (S)-3-((R)-7-(((1R,4R)-4-((4-((1R,2S)-6-hydroxy-2-phenyl-1,2,3,4-tetrahydronaphthalen-1-yl)phenyl)amino)cyclohexyl)methyl)-1-oxo-1,3,5,5a,6,7,8,9-octahydro-2H-pyrazino[1′,2′:4,5][1,4]oxazino[2,3-e]isoindol-2-yl)piperidine-2,6-dione], for which the DC50 in assay [2] was 10 to 100 nM.

What is called IC50 is the concentration that inhibits the measured activity by half.
